Calls of active or inactive are those of the source. The calls are words filed in the database; no cut-off is given here.
Columns and labels:
[1] = test system: Bel-7402; test: Antitumor activity against human Bel7402 cells; format: functional, cell-based
[2] = test system: HL-60; test: Antitumor activity against human HL60 cells; format: functional, cell-based

SMILES | Activity [1] | Activity [2]
CC(C)c1cc2c(c(O)c1O)[C@@]1(C)CCCC(C)(C)C1=CC2=O | Active | Active
CC(C)C1=CC2=C[C@H]3Oc4c(c(C(C)C)cc5c4[C@]4(C)CCCC(C)(C)C4=CC5=O)O[C@]34C(C)(C)CCC[C@@]4(C)C2=C(O)C1=O | inactive | inactive
